Paper PMC7531004, “Discovery of gramicidin A analogues with altered activities by multidimensional screening of a one-bead-one-compound library” (Nature Communications, 2020)
Where a SMILES comes first, the peptide text is derived from it. [ ]: non-standard residue; d: D form. The star is where a group is joined. NHCH2CH2OH = OCCN*; For = O=C*

Experiments:
[1] = system: Streptococcus pyogenes SSI-9; experiment: Antibacterial activity assay of bead-derived peptides (three concentrations); assay type: cell-based; design: key: +++: inhibition by the 640-fold diluted peptide solution; ++: inhibition by the 160-fold diluted solution; +: inhibition by the 40-fold diluted solution; -: no inhibition; conditions: S. pyogenes, bead-derived peptide solution, three concentrations
Outline: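 First, each peptide stock was diluted 4- and 16-fold in DMSO; next, the three solutions were mixed with S. pyogenes SSI-9 suspension (2 × 10^5 CFU) in cation-adjusted Mueller Hinton Broth plus 5% laked horse blood; finally, plates stood 18 h at 37 °C before checking for grown-cell precipitation.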

[2] = system: P388 mouse leukemia cells; conditions: 92 h
Outline: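 Peptide stocks diluted 250× in growth medium; P388 cells 1 × 10^4 cells/mL final; 37 °C, 5% CO2, 92 h. WST-1 + 1-methoxy PMS, 4 h, A415. Output: % viability.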

[3] = H+/Na+ transport assay of bead-derived peptides (one-point); assay type: biochemical; design: key: relative activity; mean of two control wells = 1.00; conditions: bead-derived peptide solution, EYPC/EYPG LUVs;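 further: relative to parent gramicidin A activity set to 1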
Outline: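 Pyranine (1.0 mM)-loaded LUVs containing egg yolk phosphatidylglycerol were prepared by film hydration, sonication and extrusion, then mixed with diluted bead-derived peptide in 96-well format and vortexed 30 min at room temperature. Fluorescence was normalized between untreated LUVs (0%) and Triton X-100 lysis (100%).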

Compound | antibacterial activity [1] | cell viability/% [2] | H+/Na+ transport activity normalized against the value of 1 (1.00) [3]
CC(C)C[C@@H](NC(=O)[C@H](C)NC(=O)CNC(=O)[C@@H](NC=O)C(C)C)C(=O)N[C@@H](C)C(=O)N[C@H](CC(C)C)C(=O)N[C@H](C(=O)N[C@@H](C(=O)N[C@@H](Cc1c[nH]c2ccccc12)C(=O)N[C@@H](C(=O)N[C@@H](Cc1c[nH]c2ccccc12)C(=O)N[C@@H](C(=O)N[C@@H](Cc1c[nH]c2ccccc12)C(=O)N[C@@H](C(=O)N[C@@H](Cc1c[nH]c2ccccc12)C(=O)NCCO)C(C)C)C(C)C)C(C)C)C(C)C)C(C)C [compound 7845] (For-VGA[dL]A[dL]V[dV]W[dV]W[dV]W[dV]W-NHCH2CH2OH) | + | 100.0% | 1.04
CC(C)C[C@@H](NC(=O)[C@H](C)NC(=O)CNC(=O)[C@@H](NC=O)C(C)C)C(=O)N[C@@H](C)C(=O)N[C@H](CC(C)C)C(=O)N[C@H](C(=O)N[C@@H](C(=O)N[C@@H](Cc1c[nH]c2ccccc12)C(=O)N[C@@H](C(=O)N[C@@H](Cc1c[nH]c2ccccc12)C(=O)N[C@H](CC(C)C)C(=O)N[C@@H](Cc1c[nH]c2ccccc12)C(=O)N[C@H](CC(C)C)C(=O)N[C@@H](Cc1c[nH]c2ccccc12)C(=O)NCCO)C(C)C)C(C)C)C(C)C [compound 7198] (For-VGA[dL]A[dL]V[dV]W[dV]W[dL]W[dL]W-NHCH2CH2OH) | + | 16.1% | 1.09
CC(C)C[C@@H](NC(=O)[C@H](Cc1c[nH]c2ccccc12)NC(=O)[C@H](NC(=O)[C@H](Cc1c[nH]c2ccccc12)NC(=O)[C@@H](CC(C)C)NC(=O)[C@@H](NC(=O)[C@H](NC(=O)[C@H](C)NC(=O)[C@H](NC(=O)[C@H](C)NC(=O)CNC(=O)[C@@H](NC=O)C(C)C)C(C)C)C(C)C)C(C)C)C(C)C)C(=O)N[C@@H](Cc1c[nH]c2ccccc12)C(=O)N[C@@H](C(=O)N[C@@H](Cc1c[nH]c2ccccc12)C(=O)NCCO)C(C)C [compound 2120] (For-VGA[dV]A[dV]V[dL]W[dV]W[dL]W[dV]W-NHCH2CH2OH) | ++ | 17.0% | 1.24
CNC(=O)C[C@@H](NC(=O)[C@@H](NC(=O)[C@H](NC(=O)[C@H](C)NC(=O)[C@H](NC(=O)[C@H](C)NC(=O)CNC(=O)[C@@H](NC=O)C(C)C)C(C)C)C(C)C)C(C)C)C(=O)N[C@@H](Cc1c[nH]c2ccccc12)C(=O)N[C@H](CC(C)C)C(=O)N[C@@H](Cc1c[nH]c2ccccc12)C(=O)N[C@H](CC(C)C)C(=O)N[C@@H](Cc1c[nH]c2ccccc12)C(=O)N[C@@H](C(=O)N[C@@H](Cc1c[nH]c2ccccc12)C(=O)NCCO)C(C)C [compound 6510] (For-VGA[dV]A[dV]V[dD](NHMe)W[dL]W[dL]W[dV]W-NHCH2CH2OH) | - | 100.0% | 1.36
CNC(=O)C[C@@H](NC(=O)[C@@H](NC(=O)[C@@H](CC(C)C)NC(=O)[C@H](C)NC(=O)[C@H](NC(=O)[C@H](C)NC(=O)CNC(=O)[C@@H](NC=O)C(C)C)C(C)C)C(C)C)C(=O)N[C@@H](Cc1c[nH]c2ccccc12)C(=O)N[C@H](CC(C)C)C(=O)N[C@@H](Cc1c[nH]c2ccccc12)C(=O)N[C@@H](C(=O)N[C@@H](Cc1c[nH]c2ccccc12)C(=O)N[C@@H](C(=O)N[C@@H](Cc1c[nH]c2ccccc12)C(=O)NCCO)C(C)C)C(C)C [compound 12707] (For-VGA[dV]A[dL]V[dD](NHMe)W[dL]W[dV]W[dV]W-NHCH2CH2OH) | - | 100.0% | 1.06
CNC(=O)C[C@@H](NC(=O)[C@H](Cc1c[nH]c2ccccc12)NC(=O)[C@H](NC(=O)[C@H](Cc1c[nH]c2ccccc12)NC(=O)[C@H](NC(=O)[C@H](Cc1c[nH]c2ccccc12)NC(=O)[C@@H](CC(C)C)NC(=O)[C@@H](NC(=O)[C@H](NC(=O)[C@H](C)NC(=O)[C@H](NC(=O)[C@H](C)NC(=O)CNC(=O)[C@@H](NC=O)C(C)C)C(C)C)C(C)C)C(C)C)C(C)C)C(C)C)C(=O)N[C@@H](Cc1c[nH]c2ccccc12)C(=O)NCCO [compound 7271] (For-VGA[dV]A[dV]V[dL]W[dV]W[dV]W[dD](NHMe)W-NHCH2CH2OH) | - | 10.6% | 1.02
CNC(=O)C[C@@H](NC(=O)[C@H](Cc1c[nH]c2ccccc12)NC(=O)[C@H](NC(=O)[C@@H](NC(=O)[C@@H](CC(C)C)NC(=O)[C@H](C)NC(=O)[C@@H](CC(C)C)NC(=O)[C@H](C)NC(=O)CNC(=O)[C@@H](NC=O)C(C)C)C(C)C)C(C)C)C(=O)N[C@@H](Cc1c[nH]c2ccccc12)C(=O)N[C@H](CC(C)C)C(=O)N[C@@H](Cc1c[nH]c2ccccc12)C(=O)N[C@@H](C(=O)N[C@@H](Cc1c[nH]c2ccccc12)C(=O)NCCO)C(C)C [compound 5091] (For-VGA[dL]A[dL]V[dV]W[dD](NHMe)W[dL]W[dV]W-NHCH2CH2OH) | + | 100.0% | 1.05
CNC(=O)C[C@@H](NC(=O)[C@H](Cc1c[nH]c2ccccc12)NC(=O)[C@@H](CC(C)C)NC(=O)[C@H](Cc1c[nH]c2ccccc12)NC(=O)[C@H](NC(=O)[C@H](Cc1c[nH]c2ccccc12)NC(=O)[C@H](NC(=O)[C@@H](NC(=O)[C@@H](CC(C)C)NC(=O)[C@H](C)NC(=O)[C@@H](CC(C)C)NC(=O)[C@H](C)NC(=O)CNC(=O)[C@@H](NC=O)C(C)C)C(C)C)C(C)C)C(C)C)C(=O)N[C@@H](Cc1c[nH]c2ccccc12)C(=O)NCCO [compound 10678] (For-VGA[dL]A[dL]V[dV]W[dV]W[dL]W[dD](NHMe)W-NHCH2CH2OH) | - | 76.0% | 1.10
CC(C)C[C@@H](NC(=O)[C@H](C)NC(=O)CNC(=O)[C@@H](NC=O)C(C)C)C(=O)N[C@@H](C)C(=O)N[C@@H](C(=O)N[C@H](C(=O)N[C@@H](C(=O)N[C@@H](Cc1c[nH]c2ccccc12)C(=O)N[C@H](CC(C)C)C(=O)N[C@@H](Cc1c[nH]c2ccccc12)C(=O)N[C@H](CC(C)C)C(=O)N[C@@H](Cc1c[nH]c2ccccc12)C(=O)N[C@H](CC(C)C)C(=O)N[C@@H](Cc1c[nH]c2ccccc12)C(=O)NCCO)C(C)C)C(C)C)C(C)C [compound 12972] (For-VGA[dL]A[dV]V[dV]W[dL]W[dL]W[dL]W-NHCH2CH2OH) | ++ | 0.0% | 1.33
CNC(=O)C[C@@H](NC(=O)[C@@H](NC(=O)[C@@H](CC(C)C)NC(=O)[C@H](C)NC(=O)[C@@H](CC(C)C)NC(=O)[C@H](C)NC(=O)CNC(=O)[C@@H](NC=O)C(C)C)C(C)C)C(=O)N[C@@H](Cc1c[nH]c2ccccc12)C(=O)N[C@@H](C(=O)N[C@@H](Cc1c[nH]c2ccccc12)C(=O)N[C@@H](C(=O)N[C@@H](Cc1c[nH]c2ccccc12)C(=O)N[C@H](CC(C)C)C(=O)N[C@@H](Cc1c[nH]c2ccccc12)C(=O)NCCO)C(C)C)C(C)C [compound 12307] (For-VGA[dL]A[dL]V[dD](NHMe)W[dV]W[dV]W[dL]W-NHCH2CH2OH) | - | 100.0% | 1.32
